Results reported in US20260167623A1 (NIKANG THERAPEUTICS, INC., priority 2022, published 2026).

Key:
CDK2 [1] = target: T1, CDK2 (Homo sapiens, UniProt P24941); assay: High-throughput HTRF measurement of cellular endogenous CDK2 level (degradation, DC50/Dmax) in OVCAR3 cells, 6 h; format: cell-based; conditions: 6 h compound treatment, HTRF total CDK2, read-out: DC50_OVCAR3_6h
T1 construct: High-Throughput Measurement of Cellular Endogenous CDK2; endogenous in cells; host or cells: OVCAR3
Method in brief: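 DC50 and Dmax were derived by four-parameter logistic fit of the […] TR-FRET ratio, scaled between DMSO (0% degradation) and lysis buffer (100%) controls. The ratio came from an HTRF total-CDK2 sandwich immunoassay on lysates of OVCAR3 cells given 0.03–1,000 nM compound for 6 hours.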

CDK2 [2] = target: T1, CDK2; assay: Inhibition of CDK2: phospho-Rb (S807/811) HTRF measurement in OVCAR3 cells, 24 h; format: cell-based; conditions: 24 h compound treatment, read-out: pRB_OVCAR3_24h
Method in brief: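 IC50 came from a four-parameter fit of DMSO-normalized TR-FRET ratios (665/620 nm) reporting phospho-Rb S807/811. Lysates were taken from OVCAR3 cultures treated 24 h with compound (0.3 to 10,000 nM) and incubated 4 h at room temperature with the antibody pair.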

SMILES	DC50 (CDK2 [1])	IC50 (CDK2 [2])
O=C1CCC(n2c(=O)oc3c(C4CCN(CC5CCN(c6cccc(S(=O)(=O)N7CCC(Nc8ncc(Cl)cn8)CC7)c6)CC5)CC4)cccc32)C(=O)N1 (stereo not drawn) [Example 168, 3-(7-(1-((1-(3-((4-((5-chloropyrimidin-2-yl)amino)piperidin-1-yl)sulfonyl)phenyl)piperidin-4-yl)methyl)piperidin-4-yl)-2-oxobenzo[d]oxazol-3(2H)-yl)piperidine-2,6-dione]	10 to 100 nM	1 to 100 nM
Cn1c(=O)n(C2CCC(=O)NC2=O)c2cccc(C3CCN(CC4CCN(c5cc(F)cc(S(=O)(=O)N6CCC(Nc7ncc(OC(F)F)cn7)CC6)c5)CC4)CC3)c21 (stereo not drawn) [Example 174, 3-(4-(1-((1-(3-((4-((5-(difluoromethoxy)pyrimidin-2-yl)amino)piperidin-1-yl)sulfonyl)-5-fluorophenyl)piperidin-4-yl)methyl)piperidin-4-yl)-3-methyl-2-oxo-2,3-dihydro-1H-benzo[d]imidazol-1-yl)piperidine-2,6-dione]	1 to 10 nM	1 to 100 nM
Cn1nc(N2CCC(=O)NC2=O)c2ccc(C3CCN(CC4CCN(c5cc(F)cc(S(=O)(=O)N6CCC(Nc7ncc(OC(F)F)cn7)CC6)c5)CC4)CC3)cc21 [Example 175, 1-(6-(1-((1-(3-((4-((5-(difluoromethoxy)pyrimidin-2-yl)amino)piperidin-1-yl)sulfonyl)-5-fluorophenyl)piperidin-4-yl)methyl)piperidin-4-yl)-1-methyl-1H-indazol-3-yl)dihydropyrimidine-2,4(1H,3H)-dione]	10 to 100 nM	100 to 500 nM
Cn1c(=O)n(C2CCC(=O)NC2=O)c2ccc(C3CCN(CC4CCN(c5cccc(S(=O)(=O)N6CCC(Nc7ncc(C(F)(F)F)cn7)CC6)c5)CC4)CC3)cc21 (stereo not drawn) [Example 177, 3-(3-methyl-2-oxo-5-(1-((1-(3-((4-((5-(trifluoromethyl)pyrimidin-2-yl)amino)piperidin-1-yl)sulfonyl)phenyl)piperidin-4-yl)methyl)piperidin-4-yl)-2,3-dihydro-1H-benzo[d]imidazol-1-yl)piperidine-2,6-dione]	1 to 10 nM	1 to 100 nM
Cn1c(=O)n(C2CCC(=O)NC2=O)c2cccc(C3CCN(CC4CCN(c5cc(F)cc(S(=O)(=O)N6CCC(Nc7ncc(Cl)cn7)CC6)c5)CC4)CC3)c21 (stereo not drawn) [Example 180, 3-(4-(1-((1-(3-((4-((5-chloropyrimidin-2-yl)amino)piperidin-1-yl)sulfonyl)-5-fluorophenyl)piperidin-4-yl)methyl)piperidin-4-yl)-3-methyl-2-oxo-2,3-dihydro-1H-benzo[d]imidazol-1-yl)piperidine-2,6-dione]	10 to 100 nM	100 to 500 nM
Cn1c(=O)n(C2CCC(=O)NC2=O)c2cccc(C3CCN(CC4CCN(c5cc(S(=O)(=O)N6CCC(Nc7ncc(C(F)(F)F)cn7)CC6)ccc5C#N)CC4)CC3)c21 (stereo not drawn) [Example 181, 2-(4-((4-(1-(2,6-dioxopiperidin-3-yl)-3-methyl-2-oxo-2,3-dihydro-1H-benzo[d]imidazol-4-yl)piperidin-1-yl)methyl)piperidin-1-yl)-4-((4-((5-(trifluoromethyl)pyrimidin-2-yl)amino)piperidin-1-yl)sulfonyl)benzonitrile]	1 to 10 nM	1 to 100 nM
Cn1c(=O)n(C2CCC(=O)NC2=O)c2cccc(C3CCN(Cc4cc(F)cc(S(=O)(=O)N5CCC(Nc6ncc(OC(F)F)cn6)CC5)c4)CC3)c21 (stereo not drawn) [Example 184, 3-(4-(1-(3-((4-((5-(difluoromethoxy)pyrimidin-2-yl)amino)piperidin-1-yl)sulfonyl)-5-fluorobenzyl)piperidin-4-yl)-3-methyl-2-oxo-2,3-dihydro-1H-benzo[d]imidazol-1-yl)piperidine-2,6-dione]	1 to 10 nM	1 to 100 nM
Cn1nc(N2CCC(=O)NC2=O)c2ccc(C3CCN(CC4CCN(c5cc(S(=O)(=O)N6CCC(Nc7ncc(C(F)(F)F)cn7)CC6)ccc5C#N)CC4)CC3)c(F)c21 [Example 188, 2-(4-((4-(3-(2,4-dioxotetrahydropyrimidin-1(2H)-yl)-7-fluoro-1-methyl-1H-indazol-6-yl)piperidin-1-yl)methyl)piperidin-1-yl)-4-((4-((5-(trifluoromethyl)pyrimidin-2-yl)amino)piperidin-1-yl)sulfonyl)benzonitrile]	10 to 100 nM	1 to 100 nM
CN(CCCN1CCC(c2cccc3c2n(C)c(=O)n3C2CCC(=O)NC2=O)CC1)c1cccc(S(=O)(=O)N2CCC(Nc3ncc(C(F)(F)F)cn3)CC2)c1 (stereo not drawn) [Example 190, 3-(3-methyl-4-(1-(3-(methyl(3-((4-((5-(trifluoromethyl)pyrimidin-2-yl)amino)piperidin-1-yl)sulfonyl)phenyl)amino)propyl)piperidin-4-yl)-2-oxo-2,3-dihydro-1H-benzo[d]imidazol-1-yl)piperidine-2,6-dione]	10 to 100 nM	1 to 100 nM
Cn1nc(N2CCC(=O)NC2=O)c2ccc(C3CCN(CC4CCN(c5cc(S(=O)(=O)N6CCC(Nc7ncc(OC(F)F)cn7)CC6)ccc5C#N)CC4)CC3)c(F)c21 [Example 192, 4-((4-((5-(difluoromethoxy)pyrimidin-2-yl)amino)piperidin-1-yl)sulfonyl)-2-(4-((4-(3-(2,4-dioxotetrahydropyrimidin-1(2H)-yl)-7-fluoro-1-methyl-1H-indazol-6-yl)piperidin-1-yl)methyl)piperidin-1-yl)benzonitrile]	1 to 10 nM	1 to 100 nM
N#Cc1ccc(S(=O)(=O)N2CCC(Nc3ncc(Cl)cn3)CC2)cc1N1CCC(CN2CCC(c3cccc4c3oc(=O)n4C3CCC(=O)NC3=O)CC2)CC1 (stereo not drawn) [Example 197, 4-((4-((5-chloropyrimidin-2-yl)amino)piperidin-1-yl)sulfonyl)-2-(4-((4-(3-(2,6-dioxopiperidin-3-yl)-2-oxo-2,3-dihydrobenzo[d]oxazol-7-yl)piperidin-1-yl)methyl)piperidin-1-yl)benzonitrile]	10 to 100 nM	1 to 100 nM
N#Cc1ccc(S(=O)(=O)N2CCC(Nc3ncc(C(F)(F)F)cn3)CC2)cc1N1CCC(CN2CCC(c3cccc4c3oc(=O)n4C3CCC(=O)NC3=O)CC2)CC1 (stereo not drawn) [Example 198, 2-(4-((4-(3-(2,6-dioxopiperidin-3-yl)-2-oxo-2,3-dihydrobenzo[d]oxazol-7-yl)piperidin-1-yl)methyl)piperidin-1-yl)-4-((4-((5-(trifluoromethyl)pyrimidin-2-yl)amino)piperidin-1-yl)sulfonyl)benzonitrile]	1 to 10 nM	1 to 100 nM
Cn1nc(N2CCC(=O)NC2=O)c2ccc(C3CCN(CC4CCN(c5cccc(S(=O)(=O)N6CCC(Nc7ncc(Br)cn7)CC6)c5)CC4)CC3)cc21 [Example 199, 1-(6-(1-((1-(3-((4-((5-bromopyrimidin-2-yl)amino)piperidin-1-yl)sulfonyl)phenyl)piperidin-4-yl)methyl)piperidin-4-yl)-1-methyl-1H-indazol-3-yl)dihydropyrimidine-2,4(1H,3H)-dione]	1 to 10 nM	1 to 100 nM
O=C1CCC(n2c(=O)oc3c(C4CCN(CC5CCN(c6cccc(S(=O)(=O)N7CCC(Nc8ncc(C(F)(F)F)cn8)CC7)c6)CC5)CC4)cccc32)C(=O)N1 (stereo not drawn) [Example 201, 3-(2-oxo-7-(1-((1-(3-((4-((5-(trifluoromethyl)pyrimidin-2-yl)amino)piperidin-1-yl)sulfonyl)phenyl)piperidin-4-yl)methyl)piperidin-4-yl)benzo[d]oxazol-3(2H)-yl)piperidine-2,6-dione]	1 to 10 nM	1 to 100 nM
Cn1c(=O)n(C2CCC(=O)NC2=O)c2cccc(N3CCN(CC4CCN(c5cc(S(=O)(=O)N6CCC(Nc7ncc(Cl)cn7)CC6)ccc5C#N)CC4)CC3)c21 (stereo not drawn) [Example 203, 4-((4-((5-chloropyrimidin-2-yl)amino)piperidin-1-yl)sulfonyl)-2-(4-((4-(1-(2,6-dioxopiperidin-3-yl)-3-methyl-2-oxo-2,3-dihydro-1H-benzo[d]imidazol-4-yl)piperazin-1-yl)methyl)piperidin-1-yl)benzonitrile]	1 to 10 nM	1 to 100 nM
Cn1c(=O)n(C2CCC(=O)NC2=O)c2ccc(C3CCN(CC4CCN(c5cc(S(=O)(=O)N6CCC(Nc7ncc(Cl)cn7)CC6)ccc5C#N)CC4)CC3)cc21 (stereo not drawn) [Example 204, 4-((4-((5-chloropyrimidin-2-yl)amino)piperidin-1-yl)sulfonyl)-2-(4-((4-(1-(2,6-dioxopiperidin-3-yl)-3-methyl-2-oxo-2,3-dihydro-1H-benzo[d]imidazol-5-yl)piperidin-1-yl)methyl)piperidin-1-yl)benzonitrile]	1 to 10 nM	1 to 100 nM
Cn1c(=O)n(C2CCC(=O)NC2=O)c2ccc(C3CCN(CC4CCN(c5cc(S(=O)(=O)N6CCC(Nc7ncc(C(F)(F)F)cn7)CC6)ccc5C#N)CC4)CC3)cc21 (stereo not drawn) [Example 205, 2-(4-((4-(1-(2,6-dioxopiperidin-3-yl)-3-methyl-2-oxo-2,3-dihydro-1H-benzo[d]imidazol-5-yl)piperidin-1-yl)methyl)piperidin-1-yl)-4-((4-((5-(trifluoromethyl)pyrimidin-2-yl)amino)piperidin-1-yl)sulfonyl)benzonitrile]	0.5 to 1 nM	1 to 100 nM
Cn1nc(N2CCC(=O)NC2=O)c2ccc(C3CCN(CC4(C)CCN(c5cccc(S(=O)(=O)N6CCC(Nc7ncc(Cl)cn7)CC6)c5)CC4)CC3)cc21 [Example 206, 1-(6-(1-((1-(3-((4-((5-chloropyrimidin-2-yl)amino)piperidin-1-yl)sulfonyl)phenyl)-4-methylpiperidin-4-yl)methyl)piperidin-4-yl)-1-methyl-1H-indazol-3-yl)dihydropyrimidine-2,4(1H,3H)-dione]	10 to 100 nM	1 to 100 nM
